Experimental data reported in US10213451B2, “Methods and compounds for modulating the secretion or expression of adhesion proteins or angiopoietins of cells” (PACIFIC ARROW LIMITED, priority 2004, dated 2019).
Where “and” joins values, the source holds several entries; their conditions need not be identical. Identical values can stand only once.

What was measured:
Format in all cases: cell-based, human
[1] = system: CAM expression in ES2 cells; test: Microarray gene expression, Table 4; details: for inhibiting ratio to the control, genes related to the adhesion molecule: span over different probes of Table 4
Experimental: Y/D is the ratio (in folds) of gene expression in cells treated with compound Y as compared with those of the no drug control (D),
YM/D is the ratio of gene expression in cells treated with compound YM (ACH-Y, Y without sugar moiety) compared with those of the no drug control (D)
Cell culture and drug-treatment.: ES2 cells were seeded in a T-25 flask with 4.5 million cells per flask for 24 hours. Cell culture was replaced with fresh medium with xanifolia-Y (Y) or DMSO no drug control (D) for 24 hours. Cells were then harvested for RNA isolation. Three experiments were done.
RNA extraction, labeling, hybridization, and data analysis. RNA was extracted from tumor cells using the Qiagen RNeasy Kit. RNA quality and quantity was checked by the Agilent BioAnalyzer and the NanoDrop® ND-1000 spectrophotometer respectively before further manipulation. The first and second cDNA strands were synthesized from 20 ng of total RNA using the Affymetrix T7 oligo(dT) primer protocol and kit for the two-cycle amplification. To produce amplified biotin-labeled-cRNA, the cDNA was […] by in vitro transcription using the MegaScript kit from Ambion. 15.0 μg of the labeled cRNA was fragmented and re-checked for concentration using the NanoDrop® ND-1000 spectrophotometer. A hybridization cocktail containing Affymetrix spike-in controls and fragmented labeled cRNA was loaded onto the Human U133 Plus 2.0 GeneChip® oligonucleotide array. The Affymetrix array (Affymetrix, Inc. Santa Clara, Calif.) is comprised of over 1,300,000 unique oligonucleotide features that represent greater than 38,500 well-substantiated human genes. The array was hybridized for 16 hours at 45° C. with rotation at 60 rpm then washed and stained with a strepavidin, R-phycoerythrin conjugate stain on the Affymetrix Fluidicis Station 450. Signal amplification was done using biotinylated antistreptavidin. The arrays were scanned using the GeneChip® 3000 confocal laser scanner with autoloader. The images were analyzed and quality control metrics recorded using Affymetrix GCOS software version 1.4. Lastly, the expression value for each gene was calculated using dChip PM-only model based or Plier algorithm.
Pairwise comparisons were made as follows: Treated vs. Control (Y vs. D), Modified Drug vs Control (YM/ACY-H vs. D) and Treated vs. Modified Drug (Y vs. YM/ACH-Y) Cel files analyzed using the Bioconductor package of R Statistical programming. Limma analysis generated a reasonable number of changing genes between the samples.
The raw data in the .CEL files were normalized by the GCRMA method (robust multi-array analysis). It is implemented in Bioconductor (http://www.bioconductor.org/). The raw signal intensity data were normalized, background corrected and summarized based on certain statistical models, and an expression value, in log 2-scale, is obtained per chip per probe set. Then the null hypothesis was tested that there's no significant changes in gene expression between the treatment pairs. This was done by LIMMA and is also implemented in Bioconductor. It uses empirical Bayes method to estimate the variance in gene expression. One comparison was made, namely, High Grade vs. Low Grade. The raw p-values were adjusted by the Benjamnin-Hochberg method for false discovery rate (FDR) control. All data sets contained a significant number of genes with a p-value less than 0.05, which is that the probability that a gene is NOT differential expressed (false positive) is 1:20.

[2] = system: Fibronectin secretion from liver HepG2 cells; test: Fibronectin secretion (Western blot), HepG2 cells
[3] = system: Fibronectin secretion from ES2 cells; test: Fibronectin secretion (Western blot), ES2 cells
[4] = ES2 cells, 10 ug/ml, listed as xanifolia-Y

SMILES | ALCAM activated leukocyte cell adhesion molecule, gene expression ratio to no drug control (D) ([1]; probe 201951_at) | ALCAM activated leukocyte cell adhesion molecule, gene expression ratio to no drug control (D) ([1]; probe 201952_at) | SCAMP1 secretory carrier membrane protein 1, gene expression ratio to no drug control (D) ([1]; probe 206667_s_at) | SCAMP1 secretory carrier membrane protein 1, gene expression ratio to no drug control (D) ([1]; probe 212416_at) | SCAMP1 secretory carrier membrane protein 1, gene expression ratio to no drug control (D) ([1]; probe 212417_at) | SCAMP1 secretory carrier membrane protein 1, gene expression ratio to no drug control (D) ([1]; probe 212425_at) | TICAM2 toll-like receptor adaptor molecule 2, gene expression ratio to no drug control (D) ([1]; probe 228234_at) | TICAM2 toll-like receptor adaptor molecule 2, gene expression ratio to no drug control (D) ([1]; probe 239431_at) | ALCAM activated leukocyte cell adhesion molecule, gene expression ratio to no drug control (D) ([1]; probe 240655_at) | inhibiting ratio to the control, genes related to the adhesion molecule [1] | other results
C/C=C(/C)C(=O)O[C@H]1[C@H](OC(=O)/C(C)=C\C)[C@@]2(CO)C(CC1(C)C)C1=CCC3[C@@]4(C)CC[C@H](O)C(C)(C)C4CC[C@@]3(C)[C@]1(C)[C@@H](O)[C@H]2O (stereo partly shown) [ACH-Y] | −1.7 folds | −1.4 folds | −1.5 folds | −1.1 folds | −1.4 folds | −1.5 folds | −1.3 folds | −1.3 folds | −1.3 folds | −1.1 to −1.7 folds | inhibition at 30 µg/mL ([2]; Homo sapiens, HepG2, HepG2 cells, 30 ug/ml): 21%; % inhibition of Fibronectin secretion ([3]; ES2 cells, 10 ug/ml): less (or not observed); Fibronectin secreted / FN band intensity, % of DMSO control ([3]; ES2 cells, 20 ug/ml): 53%-75%; inhibition at 20 µg/mL ([3]; Homo sapiens, ES-2, ES2 cells, 20 ug/ml): 48%
C/C=C(/C)C(=O)O[C@H]1[C@H](OC(=O)/C(C)=C\C)[C@@]2(CO)C(CC1(C)C)C1=CCC3[C@@]4(C)CC[C@H](O[C@@H]5OC(C(=O)O)[C@@H](O)C(O[C@@H]6O[C@@H](CO)C(O)C6O)C5O[C@@H]5OC(CO)[C@H](O)C(O)C5O)C(C)(C)C4CC[C@@]3(C)[C@]1(C)[C@@H](O)[C@H]2O (stereo partly drawn) [Xanifolia-Y, 3-O-[β-D-galactopyranosyl (1→2)]-α-L-arabinofuranosy (1→3)-β-D-glucuronopyranosyl-21,22-O-diangeloyl-3β, 15α, 16α, 21β, 22α, 28-hexahydroxyolean-12-ene] | −1.9 folds | −1.9 folds | −1.3 folds | −1.3 folds | −1.4 folds | −1.7 folds | −1.3 folds | −1.3 folds | −1.6 folds | −1.3 to −1.9 folds | % inhibition of Fibronectin secretion ([2]; HepG2 cells, 10 ug/ml): 48%; inhibition at 10 µg/mL ([2]; Homo sapiens, HepG2, HepG2 cells, 10 ug/ml): 42%; secretion of Fibronectin to medium over time ([3]; ES2 cells, 10 ug/ml, 1 to 24 hour): no or only minimally secretion of Fibronectin; reduction of Fibronectin secretion ([3]; ES2 cells, 10 ug/ml, 18 hours): 40%; reduction of Fibronectin secretion ([3]; ES2 cells, 10 ug/ml, 24 hours, listed as Y): 31% and 30-40% and 38% and 46%; reduction of Fibronectin secretion ([3]; ES2 cells, 10 ug/ml, 24 hours, listed as xanifolia-Y): 46%; reduction of FN secretion at 24 hours after removal of drug ([3]; ES2 cells, 10 ug/ml, drug removed at 4 or 8 hours): over 50%; Fibronectin secreted / FN band intensity, % of DMSO control ([3]; ES2 cells, 10 ug/ml, listed as Y): 62% and 51% and 54%; % inhibition of Fibronectin secretion ([3]; ES2 cells, 10 ug/ml, listed as Y3): 47%; % inhibition of Fibronectin secretion [3, 4]: 49%; Fibronectin secreted / FN band intensity, % of DMSO control [3, 4]: 54%; earliest time at which inhibition of Fibronectin was observed ([3]; ES2 cells, after drug-treatment): 8 h; change in Fibronectin secretion ([3]; ES2 cells, first 7 hours of treatment): not noticeable
